Columns and labels:
[1] = target: T1, Alpha-2A adrenergic receptor (Homo sapiens, UniProt P08913); experiment: Binding affinity towards human Alpha-2A adrenergic receptor by the displacement of [3H]rauwolscine
T1 sequence (P08913 whole entry): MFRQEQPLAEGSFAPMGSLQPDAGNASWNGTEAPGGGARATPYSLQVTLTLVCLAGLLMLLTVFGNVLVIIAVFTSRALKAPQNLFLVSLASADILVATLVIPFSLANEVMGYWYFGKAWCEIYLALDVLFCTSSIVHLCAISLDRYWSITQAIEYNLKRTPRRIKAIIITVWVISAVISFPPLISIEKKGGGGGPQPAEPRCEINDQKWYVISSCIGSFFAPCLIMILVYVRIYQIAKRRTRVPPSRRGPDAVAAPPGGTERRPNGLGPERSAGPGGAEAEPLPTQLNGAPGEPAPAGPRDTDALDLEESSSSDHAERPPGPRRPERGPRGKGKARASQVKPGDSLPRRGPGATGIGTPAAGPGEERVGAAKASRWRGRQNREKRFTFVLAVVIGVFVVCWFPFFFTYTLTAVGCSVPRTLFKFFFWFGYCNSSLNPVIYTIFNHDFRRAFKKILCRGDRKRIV

[2] = target: T1, Alpha-2A adrenergic receptor; experiment: Agonistic activity towards human Alpha-2A adrenergic receptor was measured as ability to inhibit forskolin-stimulated synthesis of cyclic adenosine monophosphate; assay type: functional
[3] = target: T2, Alpha-1D adrenergic receptor (Homo sapiens, UniProt P25100); experiment: Binding affinity towards human Alpha-1A adrenergic receptor by the displacement of [3H]prazosin
T2 sequence (P25100 whole entry): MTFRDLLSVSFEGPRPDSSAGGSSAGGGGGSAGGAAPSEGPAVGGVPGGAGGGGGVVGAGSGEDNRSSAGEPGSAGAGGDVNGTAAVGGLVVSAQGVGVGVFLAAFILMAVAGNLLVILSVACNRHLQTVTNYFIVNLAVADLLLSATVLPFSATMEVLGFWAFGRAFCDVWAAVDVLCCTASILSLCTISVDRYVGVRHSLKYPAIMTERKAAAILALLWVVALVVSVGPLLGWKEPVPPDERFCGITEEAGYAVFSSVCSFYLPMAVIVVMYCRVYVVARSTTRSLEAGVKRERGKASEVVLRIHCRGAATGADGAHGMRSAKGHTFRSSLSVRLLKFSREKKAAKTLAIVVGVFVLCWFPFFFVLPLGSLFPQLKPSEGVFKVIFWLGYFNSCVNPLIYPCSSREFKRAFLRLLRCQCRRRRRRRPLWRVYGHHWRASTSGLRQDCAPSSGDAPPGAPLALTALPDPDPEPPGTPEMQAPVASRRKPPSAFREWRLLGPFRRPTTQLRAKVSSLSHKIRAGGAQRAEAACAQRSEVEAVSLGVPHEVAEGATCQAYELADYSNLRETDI

[4] = target: T3, Alpha-2B adrenergic receptor (Homo sapiens, UniProt P18089); experiment: Agonistic activity towards human Alpha-2B adrenergic receptor was measured as ability to inhibit forskolin-stimulated synthesis of cyclic adenosine monophosphate; assay type: functional
T3 sequence (P18089 whole entry): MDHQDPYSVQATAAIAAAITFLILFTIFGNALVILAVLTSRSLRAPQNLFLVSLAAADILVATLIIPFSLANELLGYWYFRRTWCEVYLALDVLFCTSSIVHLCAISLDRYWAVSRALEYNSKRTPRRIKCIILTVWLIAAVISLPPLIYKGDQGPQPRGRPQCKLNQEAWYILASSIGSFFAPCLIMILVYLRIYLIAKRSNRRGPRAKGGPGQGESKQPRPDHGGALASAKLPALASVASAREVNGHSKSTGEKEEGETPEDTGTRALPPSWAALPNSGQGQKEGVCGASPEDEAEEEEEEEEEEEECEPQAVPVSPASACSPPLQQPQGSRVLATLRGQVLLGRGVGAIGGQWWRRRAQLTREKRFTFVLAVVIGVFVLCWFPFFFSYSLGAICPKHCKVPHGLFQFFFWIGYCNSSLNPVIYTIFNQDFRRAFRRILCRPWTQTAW

[5] = target: T3, Alpha-2B adrenergic receptor; experiment: Binding affinity towards human Alpha-2B adrenergic receptor by the displacement of [3H]rauwolscine
[6] = target: T4, Alpha-1A adrenergic receptor (Homo sapiens, UniProt P35348); experiment: Binding affinity towards human Alpha-1C adrenergic receptor by the displacement of [3H]prazosin
T4 sequence (P35348 whole entry): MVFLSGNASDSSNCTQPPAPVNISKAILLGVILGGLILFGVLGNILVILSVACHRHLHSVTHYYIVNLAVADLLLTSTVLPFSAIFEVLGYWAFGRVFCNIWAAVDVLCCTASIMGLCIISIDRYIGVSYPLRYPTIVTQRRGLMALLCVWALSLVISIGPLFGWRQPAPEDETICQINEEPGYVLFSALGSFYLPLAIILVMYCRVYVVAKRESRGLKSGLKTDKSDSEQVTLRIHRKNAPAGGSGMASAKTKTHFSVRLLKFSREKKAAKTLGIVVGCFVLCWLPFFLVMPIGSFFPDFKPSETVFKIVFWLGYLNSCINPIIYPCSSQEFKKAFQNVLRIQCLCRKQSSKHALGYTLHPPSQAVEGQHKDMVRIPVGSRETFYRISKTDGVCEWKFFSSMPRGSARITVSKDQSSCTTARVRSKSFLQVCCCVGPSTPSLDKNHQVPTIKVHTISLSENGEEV

[7] = target: T5, Alpha-2C adrenergic receptor (Homo sapiens, UniProt P18825); experiment: Agonistic activity towards human Alpha-2C adrenergic receptor was measured as ability to inhibit forskolin-stimulated synthesis of cyclic adenosine monophosphate; assay type: functional
T5 sequence (P18825 whole entry): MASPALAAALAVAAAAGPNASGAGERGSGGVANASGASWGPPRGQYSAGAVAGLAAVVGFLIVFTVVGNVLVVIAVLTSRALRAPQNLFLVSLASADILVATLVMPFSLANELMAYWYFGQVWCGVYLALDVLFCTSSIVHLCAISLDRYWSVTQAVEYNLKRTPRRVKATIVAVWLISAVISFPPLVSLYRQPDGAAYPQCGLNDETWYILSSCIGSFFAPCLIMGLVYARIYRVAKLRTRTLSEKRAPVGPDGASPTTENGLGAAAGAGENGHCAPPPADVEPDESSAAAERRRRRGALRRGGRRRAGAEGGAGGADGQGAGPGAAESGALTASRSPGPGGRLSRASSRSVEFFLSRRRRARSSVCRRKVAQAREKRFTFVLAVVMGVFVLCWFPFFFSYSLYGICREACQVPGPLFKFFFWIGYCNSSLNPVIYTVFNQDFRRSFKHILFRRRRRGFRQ

[8] = target: T5, Alpha-2C adrenergic receptor; experiment: Binding affinity towards human Alpha-2C adrenergic receptor by the displacement of [3H]rauwolscine

Row | Ki [1] [nM] | EC50 [2] [nM] | Ki [3] [nM] | EC50 [4] [nM] | Ki [5] [nM] | Ki [6] [nM] | EC50 [7] [nM] | Ki [8] [nM] | Compound
1 | 5.37 | 38 | 3800 | 214 | 9.77 | 2000 | 77.6 | 33.1 | C1CCCC(NC2=NCCO2)CC1
2 | 25.7 | 229 | 2190 | 34.7 | 25.1 | 1950 | 24.5 | 85.1 | c1ccc2c(c1)CCCC2NC1=NCCCO1 (stereo not given)
3 | 2.95 | 1.62 | 562 | 9.33 | 5.89 | 141 | 4.07 | 24.5 | CCC[C@H]1CCCCC1NC1=NCCO1 (stereo not given in full)
4 | 182 | 275 | 8910 | 724 | 70.8 | 6030 | 191 | 288 | C1COC(NC(C2CC2)C2CC2)=N1 [RILMENIDINE]

Second part, the compound before the results:

Row | Compound | Ki [1] [nM] | EC50 [2] [nM] | Ki [3] [nM] | EC50 [4] [nM] | Ki [5] [nM] | Ki [6] [nM] | EC50 [7] [nM] | Ki [8] [nM]
5 | c1ccc2c(c1)CCCC2NC1=NCCO1 (stereo not given) | 2.34 | 1.17 | 204 | 3.55 | 2.14 | 126 | 2.19 | 12
6 | C1COC(N2CCOCC2)=N1 | 16600 |  | 120000 |  | 11700 | 107000 |  | 16600
